Inhibition data for one compound are collected here from PMC3382171 (PLoS ONE, 2012).

Common to all, as to experiment: biochemical
What all share (design): Invitrogen SelectScreen kinase panel, percent inhibition at 1 uM, ATP at Km
Holding throughout (settings): read-out: Invitrogen KSS %Inh at 1 µM

The target of assay [1] is KIT T670I (Homo sapiens, UniProt P10721, T670I). Here is the method:
(§1) The METi and RAFi were screened against kinase panels (SelectScreen, Invitrogen; University of Dundee, Division of Signal Transduction Therapy, UK; Upstate Biotechnology/Millipore, Billerica, MA). In these selectivity assays the concentration of ATP was set to the Km value of ATP for each kinase tested to allow for a relative potency comparison between the various kinases. The compounds were tested at 1 µM final concentration. […] Supplementary file pone.0039653.s002.pdf: Figure S2 Kinase Selectivity Screen of RAFi. (A) Kinase selectivity screen (KSS) performed at University of Dundee (Division of Signal Transduction Therapy). Values in % inhibition of phosphorylation given 1 µM of RAFi compared to control. (B) KSS performed at Invitrogen (Selectscreen Service) compared to control. Values in % inhibition of phosphorylation given 1 µM of RAFi. (C) Cell based dose response kinase inhibition of indicated kinases by RAFi. (PDF) Click here for additional data file.

The target in assay [2] is EEF2K (Homo sapiens, UniProt O00418). The protocol:
as §1

Assay [3] has as its target PRKCZ (PKC zeta) (Homo sapiens, UniProt Q05513). The protocol: as §1
For assay [4], the target named is RPS6KA1 (RSK1) (Homo sapiens, UniProt Q15418). Here is the method: as §1
For assay [5], the target named is EGFR (ErbB1) L858R (Homo sapiens, UniProt P00533, L858R). Here is the method:
as §1

Assay [6] concerns the target ROS1 (Homo sapiens, UniProt P08922). Here is the method: as §1
The target in assay [7] is T1, PDK1 (Homo sapiens, UniProt O15530).
T1 construct: gene PDPK1
The protocol:
as §1

In assay [8] the target is CAMK4 (CaMKIV) (Homo sapiens, UniProt Q16566). The protocol: as §1
The target of assay [9] is MAP2K1 (MEK1) (Homo sapiens, UniProt Q02750). The protocol: as §1
For assay [10], the target named is PIK3CG (p110 gamma) (Homo sapiens, UniProt P48736). Here is the method:
as §1

Assay [11] has as its target TBK1 (Homo sapiens, UniProt Q9UHD2). The protocol:
as §1

The target of assay [12] is PIM2 (Homo sapiens, UniProt Q9P1W9). Here is the method:
as §1

The target in assay [13] is T2, PRKCB1 (PKC beta I) (Homo sapiens, UniProt P05771).
T2 construct: gene PRKCB; isoform beta I
Here is the method: as §1

Assay [14] addresses GRK4 (Homo sapiens, UniProt P32298). Here is the method:
as §1

Assay [15] deals with EPHA4 (Homo sapiens, UniProt P54764). Here is the method: as §1
The target of assay [16] is CSF1R (FMS) (Homo sapiens, UniProt P07333). Here is the method:
as §1

For assay [17], the target named is CDK1/cyclinB (Homo sapiens, UniProt P06493). Here is the method:
as §1

The target of assay [18] is MAP3K8 (COT) (Homo sapiens, UniProt P41279). The protocol:
as §1

Assay [19] has as its target ABL2 (Arg) (Homo sapiens, UniProt P42684). The protocol:
as §1

The target in assay [20] is JAK3 (Homo sapiens, UniProt P52333). The protocol:
as §1

For assay [21], the target named is AKT1 (PKB alpha) (Homo sapiens, UniProt P31749). Here is the method: as §1
Assay [22] concerns the target AKT3 (PKB gamma) (Homo sapiens, UniProt Q9Y243). Here is the method:
as §1

Molecules are shown by their SMILES.

Sequence of RPS6KA1 (RSK1) (Q15418 whole entry): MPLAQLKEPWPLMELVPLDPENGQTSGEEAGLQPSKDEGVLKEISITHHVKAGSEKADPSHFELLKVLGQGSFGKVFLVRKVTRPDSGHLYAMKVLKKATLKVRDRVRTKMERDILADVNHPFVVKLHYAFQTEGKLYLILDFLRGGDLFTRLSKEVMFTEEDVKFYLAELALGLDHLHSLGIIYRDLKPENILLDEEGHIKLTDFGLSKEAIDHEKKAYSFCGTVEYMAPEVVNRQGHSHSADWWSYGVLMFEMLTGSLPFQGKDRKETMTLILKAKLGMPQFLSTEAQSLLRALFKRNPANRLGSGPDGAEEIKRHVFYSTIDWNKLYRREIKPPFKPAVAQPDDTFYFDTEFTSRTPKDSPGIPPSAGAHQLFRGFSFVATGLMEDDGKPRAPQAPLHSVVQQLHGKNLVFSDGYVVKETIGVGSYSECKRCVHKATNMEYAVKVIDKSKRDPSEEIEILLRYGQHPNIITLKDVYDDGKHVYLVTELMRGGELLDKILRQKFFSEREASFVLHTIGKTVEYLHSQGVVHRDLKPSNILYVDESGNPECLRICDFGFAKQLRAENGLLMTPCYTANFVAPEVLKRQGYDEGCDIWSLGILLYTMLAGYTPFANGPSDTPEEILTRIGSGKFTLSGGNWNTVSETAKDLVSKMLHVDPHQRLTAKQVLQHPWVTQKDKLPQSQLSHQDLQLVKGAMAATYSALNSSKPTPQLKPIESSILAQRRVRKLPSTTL
Sequence of ABL2 (Arg) (P42684 whole entry): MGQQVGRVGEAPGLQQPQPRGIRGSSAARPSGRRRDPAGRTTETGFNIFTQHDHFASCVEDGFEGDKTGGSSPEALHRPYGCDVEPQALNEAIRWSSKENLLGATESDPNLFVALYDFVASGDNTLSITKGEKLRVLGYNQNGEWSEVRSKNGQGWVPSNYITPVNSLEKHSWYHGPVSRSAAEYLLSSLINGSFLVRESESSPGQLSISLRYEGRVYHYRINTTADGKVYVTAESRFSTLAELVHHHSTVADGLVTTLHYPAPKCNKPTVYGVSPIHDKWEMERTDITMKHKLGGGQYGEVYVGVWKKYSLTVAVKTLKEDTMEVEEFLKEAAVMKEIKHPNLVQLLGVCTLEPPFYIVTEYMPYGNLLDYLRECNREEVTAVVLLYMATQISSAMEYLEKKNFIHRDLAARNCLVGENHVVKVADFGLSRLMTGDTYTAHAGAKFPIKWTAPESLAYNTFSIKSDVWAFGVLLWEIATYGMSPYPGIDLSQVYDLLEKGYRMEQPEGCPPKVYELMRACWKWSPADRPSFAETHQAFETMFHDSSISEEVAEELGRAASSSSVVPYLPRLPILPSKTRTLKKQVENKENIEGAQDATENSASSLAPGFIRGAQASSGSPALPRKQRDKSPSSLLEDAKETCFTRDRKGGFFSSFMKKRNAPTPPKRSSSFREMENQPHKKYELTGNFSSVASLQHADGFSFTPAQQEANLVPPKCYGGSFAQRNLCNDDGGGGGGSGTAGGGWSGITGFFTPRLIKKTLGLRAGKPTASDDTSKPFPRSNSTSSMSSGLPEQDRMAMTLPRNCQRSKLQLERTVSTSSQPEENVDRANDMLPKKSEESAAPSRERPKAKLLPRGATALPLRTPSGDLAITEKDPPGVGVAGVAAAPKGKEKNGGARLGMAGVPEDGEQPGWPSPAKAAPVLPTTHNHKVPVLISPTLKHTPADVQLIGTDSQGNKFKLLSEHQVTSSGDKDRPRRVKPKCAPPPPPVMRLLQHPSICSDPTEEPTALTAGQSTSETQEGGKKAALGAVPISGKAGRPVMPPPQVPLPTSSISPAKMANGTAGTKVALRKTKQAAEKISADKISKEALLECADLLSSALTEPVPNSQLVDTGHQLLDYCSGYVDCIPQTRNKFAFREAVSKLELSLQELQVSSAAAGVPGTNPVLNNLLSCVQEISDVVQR
Sequence of PIM2 (Q9P1W9 whole entry): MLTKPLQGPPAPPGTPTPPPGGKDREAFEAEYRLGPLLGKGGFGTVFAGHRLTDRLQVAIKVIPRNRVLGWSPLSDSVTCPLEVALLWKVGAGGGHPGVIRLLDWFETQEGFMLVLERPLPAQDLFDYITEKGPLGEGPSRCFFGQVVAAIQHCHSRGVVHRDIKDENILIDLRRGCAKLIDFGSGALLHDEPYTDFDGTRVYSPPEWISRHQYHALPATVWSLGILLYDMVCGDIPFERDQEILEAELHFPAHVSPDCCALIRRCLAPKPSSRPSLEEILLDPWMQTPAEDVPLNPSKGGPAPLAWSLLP
Sequence of TBK1 (Q9UHD2 whole entry): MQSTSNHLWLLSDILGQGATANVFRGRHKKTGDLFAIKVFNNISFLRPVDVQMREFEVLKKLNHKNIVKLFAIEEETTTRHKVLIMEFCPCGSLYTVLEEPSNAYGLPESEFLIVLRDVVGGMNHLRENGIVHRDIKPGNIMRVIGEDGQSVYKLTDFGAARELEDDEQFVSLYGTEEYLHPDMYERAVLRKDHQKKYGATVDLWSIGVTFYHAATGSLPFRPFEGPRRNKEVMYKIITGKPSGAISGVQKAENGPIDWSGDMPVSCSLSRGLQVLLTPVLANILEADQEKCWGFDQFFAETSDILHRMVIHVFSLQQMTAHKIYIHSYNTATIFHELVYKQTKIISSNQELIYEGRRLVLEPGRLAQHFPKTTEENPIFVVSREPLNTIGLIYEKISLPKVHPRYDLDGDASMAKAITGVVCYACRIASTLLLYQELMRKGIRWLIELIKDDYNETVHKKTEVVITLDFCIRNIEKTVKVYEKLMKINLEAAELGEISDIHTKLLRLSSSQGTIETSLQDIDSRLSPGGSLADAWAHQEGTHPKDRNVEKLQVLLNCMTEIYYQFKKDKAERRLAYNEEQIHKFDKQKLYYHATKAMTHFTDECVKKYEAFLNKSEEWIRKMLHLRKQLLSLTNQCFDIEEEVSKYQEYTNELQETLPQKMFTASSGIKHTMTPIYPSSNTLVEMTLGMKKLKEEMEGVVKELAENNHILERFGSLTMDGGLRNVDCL
Sequence of CSF1R (FMS) (P07333 whole entry): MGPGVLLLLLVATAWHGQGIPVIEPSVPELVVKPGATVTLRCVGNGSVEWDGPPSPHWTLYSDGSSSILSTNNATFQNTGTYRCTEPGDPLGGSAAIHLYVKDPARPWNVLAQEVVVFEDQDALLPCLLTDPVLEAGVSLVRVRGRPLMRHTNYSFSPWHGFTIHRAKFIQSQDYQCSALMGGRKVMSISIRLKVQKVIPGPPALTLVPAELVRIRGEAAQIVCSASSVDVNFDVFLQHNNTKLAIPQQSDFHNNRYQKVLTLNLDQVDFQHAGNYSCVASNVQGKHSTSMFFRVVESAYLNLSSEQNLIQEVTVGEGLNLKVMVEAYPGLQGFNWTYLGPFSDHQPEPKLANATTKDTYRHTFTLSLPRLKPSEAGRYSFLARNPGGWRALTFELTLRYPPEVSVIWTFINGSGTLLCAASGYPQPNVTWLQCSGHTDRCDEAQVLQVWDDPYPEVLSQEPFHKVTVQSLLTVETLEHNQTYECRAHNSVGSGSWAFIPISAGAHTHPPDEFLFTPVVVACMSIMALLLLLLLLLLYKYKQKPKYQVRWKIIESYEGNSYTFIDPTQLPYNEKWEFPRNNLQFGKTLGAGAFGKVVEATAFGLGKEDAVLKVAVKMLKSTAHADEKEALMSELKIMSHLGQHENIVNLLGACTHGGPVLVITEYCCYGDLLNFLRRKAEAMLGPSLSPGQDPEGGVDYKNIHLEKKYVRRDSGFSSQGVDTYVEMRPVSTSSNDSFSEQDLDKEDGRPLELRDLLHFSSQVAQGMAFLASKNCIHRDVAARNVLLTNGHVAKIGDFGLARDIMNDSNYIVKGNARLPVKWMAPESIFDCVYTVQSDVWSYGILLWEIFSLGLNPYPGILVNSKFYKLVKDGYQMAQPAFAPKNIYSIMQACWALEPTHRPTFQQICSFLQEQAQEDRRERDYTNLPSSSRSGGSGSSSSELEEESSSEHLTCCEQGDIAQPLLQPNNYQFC
T2 sequence (P05771 whole entry, canonical isoform): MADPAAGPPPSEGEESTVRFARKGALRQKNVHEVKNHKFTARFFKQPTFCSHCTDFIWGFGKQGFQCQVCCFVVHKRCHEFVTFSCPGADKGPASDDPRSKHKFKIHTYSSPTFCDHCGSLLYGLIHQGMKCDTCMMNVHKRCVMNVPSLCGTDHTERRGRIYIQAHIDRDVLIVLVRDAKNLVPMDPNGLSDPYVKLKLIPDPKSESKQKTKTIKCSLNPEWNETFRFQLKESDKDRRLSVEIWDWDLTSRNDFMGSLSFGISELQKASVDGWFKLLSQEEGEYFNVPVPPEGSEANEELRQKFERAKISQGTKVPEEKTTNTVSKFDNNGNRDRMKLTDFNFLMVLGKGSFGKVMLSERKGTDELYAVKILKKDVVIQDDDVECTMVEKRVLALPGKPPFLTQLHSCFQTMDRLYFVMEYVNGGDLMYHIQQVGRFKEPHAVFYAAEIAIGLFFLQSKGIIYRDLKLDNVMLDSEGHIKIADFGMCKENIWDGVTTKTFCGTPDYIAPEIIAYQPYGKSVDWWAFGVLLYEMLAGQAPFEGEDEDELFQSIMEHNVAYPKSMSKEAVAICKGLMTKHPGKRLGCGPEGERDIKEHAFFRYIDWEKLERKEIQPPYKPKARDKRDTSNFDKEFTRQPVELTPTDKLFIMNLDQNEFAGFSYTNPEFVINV
Sequence of MAP3K8 (COT) (P41279 whole entry): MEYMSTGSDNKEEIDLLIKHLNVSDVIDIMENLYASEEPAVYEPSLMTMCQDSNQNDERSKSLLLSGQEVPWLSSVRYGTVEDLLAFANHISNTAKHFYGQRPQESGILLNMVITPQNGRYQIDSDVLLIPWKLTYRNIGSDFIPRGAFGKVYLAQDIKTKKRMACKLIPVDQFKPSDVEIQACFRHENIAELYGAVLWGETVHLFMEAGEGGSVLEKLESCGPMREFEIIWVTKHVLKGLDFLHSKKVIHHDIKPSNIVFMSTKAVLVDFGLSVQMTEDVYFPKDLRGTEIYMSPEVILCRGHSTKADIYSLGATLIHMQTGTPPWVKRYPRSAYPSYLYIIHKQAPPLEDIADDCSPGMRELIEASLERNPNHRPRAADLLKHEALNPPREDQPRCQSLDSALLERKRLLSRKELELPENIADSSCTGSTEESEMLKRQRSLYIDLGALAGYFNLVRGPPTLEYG

Regarding `N#CCCNc1nccc(-c2cn(CC(F)F)nc2-c2cnc3[nH]ccc3c2)n1` [RAFi, PF-04880594], the inhibition at 1 µM was 36% in assay [1]; 14% in assay [2]; -7% in assay [3]; 6% in [4]; 6% in assay [5]; 11% in assay [6]. For the same compound, the inhibition at 1 µM in assay [7] is 13%; in assay [8], -5%; in assay [9], 24%; in [10], 12%; in assay [11], -7%; in assay [12], 3%. The inhibition at 1 µM in assay [13] is 36%; in [14], -18%; in assay [15] it was 1%; in assay [16], 33%; in [17] it was -1%; in assay [18] it was 24%. For the same compound, the inhibition at 1 µM in assay [19] was -1%; in [20], 9%; in assay [21], 5%; in [22], 7%.
